Laboratory results published in ChEMBL document CHEMBL3044835, “Pachyelasides A-D, novel molluscicidal triterpene saponins from Pachyelasma tessmannii” (2005).
In brackets after ≈: the same amount, converted by molar mass.

Test system: Biomphalaria glabrata
Assay: Molluscicidal activity against Biomphalaria glabrata assessed as heartbeat measured after 24 hr
Assay type: functional
Conditions: read-out: LD50 (the source's name)

Row | Compound | LC50 [µg/mL]
1 | CC1(C)C[C@H]2C3=CC[C@@H]4[C@@]5(C)CC[C@H](O[C@@H]6O[C@H](CO)[C@@H](O)[C@H](O)[C@H]6O[C@@H]6O[C@H](CO)[C@@H](O)[C@H](O[C@@H]7O[C@H](CO)[C@@H](O)[C@H](O)[C@H]7O[C@@H]7O[C@H](CO)[C@@H](O)[C@H](O)[C@H]7O)[C@H]6O)C(C)(C)[C@@H]5CC[C@@]4(C)[C@]3(C)CC[C@@]2(C(=O)O)C[C@@H]1OC(=O)/C=C/c1ccccc1 [PACHYELASIDE-A] | 2 (≈ 1.6 µM)
2 | CC1(C)C[C@H]2C3=CC[C@@H]4[C@@]5(C)CC[C@H](O[C@@H]6O[C@H](CO)[C@@H](O[C@@H]7OC[C@@H](O)[C@H](O)[C@H]7O)[C@H](O)[C@H]6O[C@@H]6O[C@H](CO)[C@@H](O)[C@H](O[C@@H]7O[C@H](CO)[C@@H](O)[C@H](O)[C@H]7O[C@@H]7O[C@H](CO)[C@@H](O)[C@H](O)[C@H]7O)[C@H]6O)C(C)(C)[C@@H]5CC[C@@]4(C)[C@]3(C)CC[C@@]2(C(=O)O)C[C@@H]1OC(=O)/C=C/c1ccccc1 [PACHYELASIDE D] | 8 (≈ 5.78 µM)
3 | CC1(C)CC[C@]2(C(=O)O)CC[C@]3(C)C(=CC[C@@H]4[C@@]5(C)CC[C@H](O[C@@H]6O[C@H](CO)[C@@H](O)[C@H](O)[C@H]6O[C@@H]6O[C@H](CO)[C@@H](O)[C@H](O[C@@H]7O[C@H](CO)[C@@H](O)[C@H](O)[C@H]7O[C@@H]7O[C@H](CO)[C@@H](O)[C@H](O)[C@H]7O)[C@H]6O)C(C)(C)[C@@H]5CC[C@]43C)[C@@H]2C1 [PACHYELASIDE B] | 2 (≈ 1.81 µM)
4 | CC1(C)C[C@H]2C3=CC[C@@H]4[C@@]5(C)CC[C@H](O[C@@H]6O[C@H](CO)[C@@H](O[C@@H]7OC[C@@H](O)[C@H](O)[C@H]7O)[C@H](O)[C@H]6O[C@@H]6OC[C@@H](O)[C@H](O[C@@H]7O[C@H](CO)[C@@H](O)[C@H](O)[C@H]7O[C@@H]7O[C@H](CO)[C@@H](O)[C@H](O)[C@H]7O)[C@H]6O)C(C)(C)[C@@H]5CC[C@@]4(C)[C@]3(C)CC[C@@]2(C(=O)O)C[C@@H]1OC(=O)/C=C/c1ccccc1 [PACHYELASIDE C] | 2 (≈ 1.48 µM)
